Key:
[1] = discoloration / decomposition temperature (melting point measuring instrument); assay type: physicochemical; conditions: definite melting points could not be determined
From the text: 3. The definite melting points of the present compounds could not be determined in a melting point measuring instrument manufactured by Yanagimoto Co., Ltd. Their discoloration temperature ranges together with decomposition temperatures are as follows: […]

[2] = tested on: Glucodextranase, i.e. exo-type dextranase; assay: enzymatic hydrolysis with glucodextranase (exo-type dextranase); assay type: biochemical; conditions: 1% solution; FIG. 2
From the text: 10. Glucodextranase, i.e. exo-type dextranase, was allowed to act on the present compounds (1% solution), but they were not hydrolyzed at all as shown in FIG. 2.

Row | Structure (SMILES) | discoloration temperature ranges together with decomposition temperatures [1] | hydrolysis by glucodextranase [2]
1 | O[C@@H]1[C@@H](O)[C@H]2OC[C@H]3O[C@H](OC[C@H]4O[C@H](OC[C@H]5O[C@H](OC[C@H]6O[C@H](OC[C@H]7O[C@H](OC[C@H]8O[C@H](OC[C@@H](O2)[C@H]1O)[C@H](O)[C@@H](O)[C@@H]8O)[C@H](O)[C@@H](O)[C@@H]7O)[C@H](O)[C@@H](O)[C@@H]6O)[C@H](O)[C@@H](O)[C@@H]5O)[C@H](O)[C@@H](O)[C@@H]4O)[C@H](O)[C@@H](O)[C@@H]3O [Cycloisomaltoheptaose, cycloisomaltoheptaose] | 234-238 °C | –
2 | O[C@@H]1[C@@H](O)[C@H]2OC[C@H]3O[C@H](OC[C@H]4O[C@H](OC[C@H]5O[C@H](OC[C@H]6O[C@H](OC[C@H]7O[C@H](OC[C@H]8O[C@H](OC[C@H]9O[C@H](OC[C@H]%10O[C@H](OC[C@@H](O2)[C@H]1O)[C@H](O)[C@@H](O)[C@@H]%10O)[C@H](O)[C@@H](O)[C@@H]9O)[C@H](O)[C@@H](O)[C@@H]8O)[C@H](O)[C@@H](O)[C@@H]7O)[C@H](O)[C@@H](O)[C@@H]6O)[C@H](O)[C@@H](O)[C@@H]5O)[C@H](O)[C@@H](O)[C@@H]4O)[C@H](O)[C@@H](O)[C@@H]3O [Cycloisomaltononaose, cycloisomaltononaose] | 239-242 °C | –
3 | O[C@@H]1[C@@H](O)[C@H]2OC[C@H]3O[C@H](OC[C@H]4O[C@H](OC[C@H]5O[C@H](OC[C@H]6O[C@H](OC[C@H]7O[C@H](OC[C@H]8O[C@H](OC[C@H]9O[C@H](OC[C@@H](O2)[C@H]1O)[C@H](O)[C@@H](O)[C@@H]9O)[C@H](O)[C@@H](O)[C@@H]8O)[C@H](O)[C@@H](O)[C@@H]7O)[C@H](O)[C@@H](O)[C@@H]6O)[C@H](O)[C@@H](O)[C@@H]5O)[C@H](O)[C@@H](O)[C@@H]4O)[C@H](O)[C@@H](O)[C@@H]3O [Cycloisomaltooctaose, cycloisomaltooctaose] | 238-241 °C | –

Second part, the molecule after the results:

Row | discoloration temperature ranges together with decomposition temperatures [1] | hydrolysis by glucodextranase [2] | Structure (SMILES)
4 | – | completely hydrolyzed | OC[C@H]1O[C@H](OC[C@H]2O[C@H](OC[C@H]3O[C@H](OC[C@H]4O[C@H](OC[C@H]5O[C@H](OC[C@H]6O[C@H](OC[C@H]7OC(O)[C@H](O)[C@@H](O)[C@@H]7O)[C@H](O)[C@@H](O)[C@@H]6O)[C@H](O)[C@@H](O)[C@@H]5O)[C@H](O)[C@@H](O)[C@@H]4O)[C@H](O)[C@@H](O)[C@@H]3O)[C@H](O)[C@@H](O)[C@@H]2O)[C@H](O)[C@@H](O)[C@@H]1O (some centres unmarked) [isomaltoheptaose]
5 | – | completely hydrolyzed | OC[C@H]1O[C@H](OC[C@H]2O[C@H](OC[C@H]3O[C@H](OC[C@H]4O[C@H](OC[C@H]5O[C@H](OC[C@H]6OC(O)[C@H](O)[C@@H](O)[C@@H]6O)[C@H](O)[C@@H](O)[C@@H]5O)[C@H](O)[C@@H](O)[C@@H]4O)[C@H](O)[C@@H](O)[C@@H]3O)[C@H](O)[C@@H](O)[C@@H]2O)[C@H](O)[C@@H](O)[C@@H]1O (some centres unmarked) [isomaltohexaose]

Reference: patent publication US5453369A, “Enzyme for producing novel cyclooisomaltooligosaccharides” (Kikkoman Corporation, priority 1992, dated 1995)
